Read-outs that look alike come from different tables or passages of the source.
Test system: HBV
Assay: Viral load production from HepAD38 cells, qPCR of the HBV core sequence in supernatant
Format: cell-based
Outline: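 EC50 and CC50 come from four-parameter logistic fits of supernatant HBV core DNA (TaqMan qPCR, DNA standards, compared with DMSO wells) and of CellTiter-Glo luminescence.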

[1] = HepAD38 cells, 5 days, HBV DNA in supernatant by qPCR, Table 1 ranges, read-out: Activity (viral load lowering EC50)
[2] = Hepatitis B virus, HePAD38, 120 h, HepAD38 cells, 5 days, HBV DNA in supernatant by qPCR, Table 1 ranges, read-out: Activity (viral load lowering EC50)
[3] = Hepatitis B virus, HePAD38, 120 h, read-out: Activity (viral load lowering EC50), HepAD38 cells, 5 days, HBV DNA in supernatant by qPCR, Table 1 ranges

`Cn1nc(C(F)(F)F)cc1NCC1(O)CC2CC(c3nn(C)c(N)c3C(=O)Nc3ccc(F)c(Cl)c3)CC2C1` (single isomer, unassigned) [Example 203B] showed an EC50 [1] of 10 to 50 nM.
`C[C@H](NC1CC2CC(c3nn(C)c(N)c3C(=O)Nc3ccc(F)c(Cl)c3)CC2C1)C(F)(F)F` (stereo partly drawn) [Example 100, 5-Amino-N-(3-chloro-4-fluorophenyl)-1-methyl-3-(5-(((S)-1,1,1-trifluoropropan-2-yl)amino)octahydropentalen-2-yl)-1H-pyrazole-4-carboxamide] was tested, and the EC50 [2] was 10 to 50 nM.
`Cn1nc(C2CC3CC(CNC(=O)C4CCNCC4)CC3C2)c(C(=O)Nc2ccc(F)c(Cl)c2)c1N` (stereo not drawn) [Example 75, N-((5-(5-Amino-4-((3-chloro-4-fluorophenyl)carbamoyl)-1-methyl-1H-pyrazol-3-yl)octahydropentalen-2-yl)methyl)piperidine-4-carboxamide] showed an EC50 [2] of 10 to 50 nM.
`Cn1nc(C2CC3CC(O)(CNc4ncc(F)cn4)CC3C2)c(C(=O)Nc2ccc(F)c(Cl)c2)c1N` (stereo not drawn) [Example 201] was tested, and the EC50 [2] was < 10 nM.
Work on `C[C@@H](NC1CC2CC(c3nn(C)c(N)c3C(=O)Nc3ccc(F)c(Cl)c3)CC2C1)C(F)(F)F` (stereo partly drawn) [Example 99, 5-Amino-N-(3-chloro-4-fluorophenyl)-1-methyl-3-(5-(((R)-1,1,1-trifluoropropan-2-yl)amino)octahydropentalen-2-yl)-1H-pyrazole-4-carboxamide] yielded an EC50 [2] of 10 to 50 nM.
For `Cn1nc(C2CC3CC(c4ccccc4)C(O)C3C2)c(C(=O)Nc2ccc(F)c(Cl)c2)c1N` (single isomer, unassigned) [Example 145, 5-Amino-N-(3-chloro-4-fluorophenyl)-3-(4-hydroxy-5-phenyloctahydropentalen-2-yl)-1-methyl-1H-pyrazole-4-carboxamide], the EC50 (Hepatitis B virus, HePAD38, 120 h, HepAD38 cells, 5 days, HBV DNA in supernatant by qPCR, Table 2 ranges, read-out: VL HepAD38 EC50 range) was < 100 nM.
With `Cn1nc(C2CC3CC(CNS(=O)(=O)C4CC4)CC3C2)c(C(=O)Nc2ccc(F)c(Cl)c2)c1N` (stereo not drawn) [Example 94, 5-Amino-N-(3-chloro-4-fluorophenyl)-3-(5-(cyclopropanesulfonamidomethyl)octahydropentalen-2-yl)-1-methyl-1H-pyrazole-4-carboxamide] the EC50 [2] was < 10 nM.
For `Cc1ccc(S(=O)(=O)CC2(O)CC3CC(c4nn(C)c(N)c4C(=O)Nc4ccc(F)c(Cl)c4)CC3C2)cn1` (stereo not drawn) [Example 162], the EC50 [2] was < 10 nM.
In the case of `COC(=O)NCC1CC2CC(c3nn(C)c(N)c3C(=O)Nc3ccc(F)c(Cl)c3)CC2C1` (stereo not drawn) [Example 48, Methyl ((5-(5-amino-4-((3-chloro-4-fluorophenyl)carbamoyl)-1-methyl-1H-pyrazol-3-yl)octahydropentalen-2-yl)methyl)carbamate], the EC50 [2] is reported as < 10 nM.
Work on `Cn1nc(C2CC3CC(O)(c4ncc(C(F)(F)F)s4)CC3C2)c(C(=O)Nc2ccc(F)c(Cl)c2)c1N` (stereo not drawn) [Example 148] yielded an EC50 [2] of 10 to 50 nM.
For `Cn1cc(C2(O)CC3CC(c4nn(C)c(N)c4C(=O)Nc4ccc(F)c(Cl)c4)CC3C2)c(C(F)(F)F)n1` (stereo not drawn) [Example 220], the EC50 [2] was < 10 nM.
`Cc1ccc(C2(O)CC3CC(c4nn(C)c(N)c4C(=O)Nc4ccc(F)c(C#N)c4)CC3C2)cc1` (stereo not drawn) [Example 7, 5-Amino-N-(3-cyano-4-fluorophenyl)-3-(5-hydroxy-5-(p-tolyl)octahydropentalen-2-yl)-1-methyl-1H-pyrazole-4-carboxamide] was tested, and the EC50 [2] was < 10 nM.
For `Cn1nc(C2CC3CC(O)(Cc4ccc(S(C)(=O)=O)cn4)CC3C2)c(C(=O)Nc2ccc(F)c(Cl)c2)c1N` (stereo not drawn) [Exmaple 165], the EC50 [3] was < 10 nM.
With `Cn1nc(C2CC3CC(O)(c4c[nH]cn4)CC3C2)c(C(=O)Nc2ccc(F)c(Cl)c2)c1N` (stereo not drawn) [Example 27, 5-Amino-N-(3-chloro-4-fluorophenyl)-3-(5-hydroxy-5-(1H-imidazol-4-yl)octahydropentalen-2-yl)-1-methyl-1H-pyrazole-4-carboxamide] the EC50 [2] was 10 to 50 nM.
With `Cc1noc(C)c1C(=O)NCC1CC2CC(c3nn(C)c(N)c3C(=O)Nc3ccc(F)c(Cl)c3)CC2C1` (stereo not drawn) [Example 59, N-((5-(5-Amino-4-((3-chloro-4-fluorophenyl)carbamoyl)-1-methyl-1H-pyrazol-3-yl)octahydropentalen-2-yl)methyl)-3,5-dimethylisoxazole-4-carboxamide] the EC50 [2] was < 10 nM.
With `Cn1nc(C2CC3CC(O)(c4cn(COP(=O)(O)OC(C)(C)C)nc4C(F)(F)F)CC3C2)c(C(=O)Nc2ccc(F)c(Cl)c2)c1N` (stereo not drawn) [Cpmpd. 6-2, (4-(5-(5-amino-4-((3-chloro-4-fluorophenyl)carbamoyl)-1-methyl-1H-pyrazol-3-yl)-2-hydroxyoctahydropentalen-2-yl)-3-(trifluoromethyl)-1H-pyrazol-1-yl)methyl tert-butyl hydrogen phosphate] the EC50 [3] was 10 to 50 nM.
For `Cn1nc(C2CC3CC(CNS(=O)(=O)C4CCOCC4)CC3C2)c(C(=O)Nc2ccc(F)c(Cl)c2)c1N` (stereo not drawn) [Example 96, 5-Amino-N-(3-chloro-4-fluorophenyl)-1-methyl-3-(5-(((tetrahydro-2H-pyran)-4-sulfonamido)methyl)octahydropentalen-2-yl)-1H-pyrazole-4-carboxamide], the EC50 [2] was < 10 nM.
`C[C@@H](NC(=O)C1CC2CC(c3nn(C)c(N)c3C(=O)Nc3ccc(F)c(Cl)c3)CC2C1)C(F)(F)F` (single isomer, unassigned) [Example 102] gave an EC50 [1] of 10 to 50 nM.
`Cn1nc(C2CC3CC(CNS(=O)(=O)c4ccc(Cl)nc4)CC3C2)c(C(=O)Nc2ccc(F)c(Cl)c2)c1N` (stereo not drawn) [Example 86, 5-Amino-N-(3-chloro-4-fluorophenyl)-3-(5-(((6-chloropyridine)-3-sulfonamido)methyl)octahydropentalen-2-yl)-1-methyl-1H-pyrazole-4-carboxamide] was tested, and the EC50 [2] was < 10 nM.
In the case of `Cn1nc(C2CC3CC(O)(c4nccs4)CC3C2)c(C(=O)Nc2ccc(F)c(Cl)c2)c1N` (stereo not drawn) [Example 18, 5-Amino-N-(3-chloro-4-fluorophenyl)-3-(5-hydroxy-5-(thiazol-2-yl)octahydropentalen-2-yl)-1-methyl-1H-pyrazole-4-carboxamide], the EC50 [2] is reported as < 10 nM.
`Cn1nc(C2CC3CN(C(=O)OCc4cccc(F)c4)CC3C2)c(C(=O)Nc2ccc(F)c(Cl)c2)c1N` (stereo not drawn) [Example 130, 3-fluorobenzyl 5-(5-amino-4-((3-chloro-4-fluorophenyl)carbamoyl)-1-methyl-1H-pyrazol-3-yl)hexahydrocyclopenta[c]pyrrole-2(1H)-carboxylate] was tested, and the EC50 [2] was 10 to 50 nM.
With `COC(=O)C12CCC(C(=O)NCC3CC4CC(c5nn(C)c(N)c5C(=O)Nc5ccc(F)c(Cl)c5)CC4C3)(CC1)CC2` (stereo not drawn) [Example 77, Methyl 4-(((5-(5-amino-4-((3-chloro-4-fluorophenyl)carbamoyl)-1-methyl-1H-pyrazol-3-yl)octahydropentalen-2-yl)methyl)carbamoyl)bicyclo[2.2.2]octane-1-carboxylate] the EC50 [2] was 50 to 500 nM.
`Cn1nc(C2CC3CC(O)(c4cnccn4)CC3C2)c(C(=O)Nc2ccc(F)c(Cl)c2)c1N` (stereo not drawn) [Example 191] was tested, and the EC50 [2] was < 10 nM.
With `CC(C)S(=O)(=O)NCC1CC2CC(c3nn(C)c(N)c3C(=O)Nc3ccc(F)c(Cl)c3)CC2C1` (stereo not drawn) [Example 90, 5-Amino-N-(3-chloro-4-fluorophenyl)-1-methyl-3-(5-(((1-methylethyl)sulfonamido)methyl)octahydropentalen-2-yl)-1H-pyrazole-4-carboxamide] the EC50 [2] was < 10 nM.
Work on `Cn1nc(C2CC3CN(c4ccc(C(F)(F)F)nn4)CC3C2)c(C(=O)Nc2ccc(F)c(Cl)c2)c1N` (stereo not drawn) [Example 132, 5-Amino-N-(3-chloro-4-fluorophenyl)-1-methyl-3-(2-(6-(trifluoromethyl)pyridazin-3-yl)octahydrocyclopenta[c]pyrrol-5-yl)-1H-pyrazole-4-carboxamide] yielded an EC50 [2] of 10 to 50 nM.
Compound `CSc1nccc(C2(O)CC3CC(c4nn(C)c(N)c4C(=O)Nc4ccc(F)c(Cl)c4)CC3C2)n1` (stereo not drawn) [Example 192] has an EC50 [2] of 10 to 50 nM.
`Cn1nc(C2CC3CC(CNC(=O)C45CCN(CC4)CC5)CC3C2)c(C(=O)Nc2ccc(F)c(Cl)c2)c1N` (stereo not drawn) [Example 78, N-((5-(5-Amino-4-((3-chloro-4-fluorophenyl)carbamoyl)-1-methyl-1H-pyrazol-3-yl)octahydropentalen-2-yl)methyl)quinuclidine-4-carboxamide] gave an EC50 [2] of 50 to 500 nM.
For `Cn1nc(C2CC3CC(O)(c4c(F)cncc4F)CC3C2)c(C(=O)Nc2ccc(F)c(Cl)c2)c1N` (stereo not drawn) [Example 174], the EC50 [2] was < 10 nM.
Compound `Cn1nc(C2CC3CC(CNS(=O)(=O)C4CCS(=O)(=O)CC4)CC3C2)c(C(=O)Nc2ccc(F)c(Cl)c2)c1N` (stereo not drawn) [Example 97, 5-Amino-N-(3-chloro-4-fluorophenyl)-3-(5-(((1,1-dioxidotetrahydro-2H-thiopyran)-4-sulfonamido)methyl)octahydropentalen-2-yl)-1-methyl-1H-pyrazole-4-carboxamide] has an EC50 [2] of 10 to 50 nM.
`Cn1nc(C2CC3CC(O)(c4sc(C(F)(F)F)nc4Br)CC3C2)c(C(=O)Nc2ccc(F)c(Cl)c2)c1N` (stereo not drawn) [Example 151] was tested, and the EC50 [2] was 50 to 500 nM.
With `Cn1cnc(C(=O)NCC2CC3CC(c4nn(C)c(N)c4C(=O)Nc4ccc(F)c(Cl)c4)CC3C2)c1` (stereo not drawn) [Example 38, 5-Amino-N-(3-chloro-4-fluorophenyl)-1-methyl-3-(5-((1-methyl-1H-imidazole-4-carboxamido)methyl)octahydropentalen-2-yl)-1H-pyrazole-4-carboxamide] the EC50 [2] was < 10 nM.
Compound `Cn1nc(C2CC3CC(CNS(=O)(=O)C4CCCC4)CC3C2)c(C(=O)Nc2ccc(F)c(Cl)c2)c1N` (stereo not drawn) [Example 92, 5-Amino-N-(3-chloro-4-fluorophenyl)-3-(5-(cyclopentanesulfonamidomethyl)octahydropentalen-2-yl)-1-methyl-1H-pyrazole-4-carboxamide] has an EC50 [2] of 10 to 50 nM.
`Cn1nc(C2CC3CC(O)(c4cc(F)cc(F)c4)CC3C2)c(C(=O)Nc2ccc(F)c(Cl)c2)c1N` (stereo not drawn) [Example 11, 5-Amino-N-(3-chloro-4-fluorophenyl)-3-(5-(3,5-difluorophenyl)-5-hydroxyoctahydropentalen-2-yl)-1-methyl-1H-pyrazole-4-carboxamide] showed an EC50 [2] of 10 to 50 nM.

Source: patent US20230295096A1, “PYRAZOLE CARBOXAMIDE COMPOUNDS FOR TREATMENT OF HBV” (ASSEMBLY BIOSCIENCES, INC., priority 2020, published 2023)
